Test results published in the Kinase Knowledgebase extract (Sharma et al. 2016).

Assays:
PIK3CG (human) = PIK3CG (human) (UniProt P48736); experiment: Assessment of PIK3CG Kinase Activity
PIK3CB (Human) = PIK3CB (Human) (UniProt P42338); experiment: Assessment of PIK3CB Kinase Activity
PIK3CD (Human) = PIK3CD (Human) (UniProt O00329); experiment: Assessment of PIK3CD Kinase Activity
PIK3CA (human) = PIK3CA (human) (UniProt P42336); experiment: Assessment of PIK3CA Kinase Activity
Chain of PIK3CA (human) (P42336 whole entry, looked up): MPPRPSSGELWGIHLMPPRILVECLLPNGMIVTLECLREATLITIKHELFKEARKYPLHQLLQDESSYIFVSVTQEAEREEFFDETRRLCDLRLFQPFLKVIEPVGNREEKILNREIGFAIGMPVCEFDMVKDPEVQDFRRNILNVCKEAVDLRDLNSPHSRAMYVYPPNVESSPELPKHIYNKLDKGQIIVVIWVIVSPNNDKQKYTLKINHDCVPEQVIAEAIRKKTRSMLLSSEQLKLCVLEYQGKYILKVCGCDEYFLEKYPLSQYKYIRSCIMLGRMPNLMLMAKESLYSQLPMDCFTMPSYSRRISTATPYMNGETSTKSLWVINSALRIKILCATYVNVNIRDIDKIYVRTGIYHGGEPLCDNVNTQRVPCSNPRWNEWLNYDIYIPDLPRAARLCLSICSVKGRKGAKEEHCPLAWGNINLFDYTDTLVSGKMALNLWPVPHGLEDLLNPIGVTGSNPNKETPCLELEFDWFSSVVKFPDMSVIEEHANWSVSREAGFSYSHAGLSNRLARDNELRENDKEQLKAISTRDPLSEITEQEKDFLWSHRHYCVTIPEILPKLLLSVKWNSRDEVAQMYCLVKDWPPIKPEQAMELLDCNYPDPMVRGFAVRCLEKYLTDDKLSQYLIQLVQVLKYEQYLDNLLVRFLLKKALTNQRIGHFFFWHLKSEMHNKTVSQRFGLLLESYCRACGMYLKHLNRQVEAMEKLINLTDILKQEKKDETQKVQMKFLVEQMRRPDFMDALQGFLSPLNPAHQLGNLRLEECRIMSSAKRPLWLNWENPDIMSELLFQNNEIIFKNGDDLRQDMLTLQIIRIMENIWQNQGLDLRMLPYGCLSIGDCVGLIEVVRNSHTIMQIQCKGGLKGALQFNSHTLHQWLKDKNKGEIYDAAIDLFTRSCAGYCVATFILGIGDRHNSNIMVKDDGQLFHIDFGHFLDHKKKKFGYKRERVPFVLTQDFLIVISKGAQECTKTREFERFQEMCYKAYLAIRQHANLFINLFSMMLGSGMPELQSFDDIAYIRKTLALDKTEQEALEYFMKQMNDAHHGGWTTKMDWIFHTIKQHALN

Chain of PIK3CD (Human) (O00329 whole entry, looked up): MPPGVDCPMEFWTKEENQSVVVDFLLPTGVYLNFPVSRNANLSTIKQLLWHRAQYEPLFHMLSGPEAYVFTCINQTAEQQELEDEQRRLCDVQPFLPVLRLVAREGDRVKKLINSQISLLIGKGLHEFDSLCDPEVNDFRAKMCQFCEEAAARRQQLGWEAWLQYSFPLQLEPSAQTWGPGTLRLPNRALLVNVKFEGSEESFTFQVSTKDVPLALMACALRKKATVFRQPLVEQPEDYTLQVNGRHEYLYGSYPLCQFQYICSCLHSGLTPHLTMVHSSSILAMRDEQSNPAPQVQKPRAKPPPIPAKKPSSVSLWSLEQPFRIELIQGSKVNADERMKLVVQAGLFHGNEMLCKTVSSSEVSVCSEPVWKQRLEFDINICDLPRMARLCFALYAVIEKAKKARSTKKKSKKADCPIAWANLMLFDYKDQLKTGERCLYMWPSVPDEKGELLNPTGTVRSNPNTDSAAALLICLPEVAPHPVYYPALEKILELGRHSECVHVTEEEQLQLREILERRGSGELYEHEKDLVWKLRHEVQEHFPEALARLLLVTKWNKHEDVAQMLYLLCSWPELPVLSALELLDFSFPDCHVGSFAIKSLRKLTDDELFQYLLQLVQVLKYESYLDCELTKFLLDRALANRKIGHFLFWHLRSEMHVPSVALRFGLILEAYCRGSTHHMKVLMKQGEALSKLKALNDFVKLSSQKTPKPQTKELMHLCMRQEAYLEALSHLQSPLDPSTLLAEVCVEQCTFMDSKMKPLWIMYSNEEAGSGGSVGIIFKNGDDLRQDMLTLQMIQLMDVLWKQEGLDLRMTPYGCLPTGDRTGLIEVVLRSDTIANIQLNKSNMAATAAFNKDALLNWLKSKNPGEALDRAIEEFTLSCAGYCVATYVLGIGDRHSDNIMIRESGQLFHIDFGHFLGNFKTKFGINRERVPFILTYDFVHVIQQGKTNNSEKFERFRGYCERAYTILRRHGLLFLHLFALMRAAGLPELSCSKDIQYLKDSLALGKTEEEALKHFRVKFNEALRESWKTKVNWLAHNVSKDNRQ
Chain of PIK3CG (human) (P48736 whole entry, looked up): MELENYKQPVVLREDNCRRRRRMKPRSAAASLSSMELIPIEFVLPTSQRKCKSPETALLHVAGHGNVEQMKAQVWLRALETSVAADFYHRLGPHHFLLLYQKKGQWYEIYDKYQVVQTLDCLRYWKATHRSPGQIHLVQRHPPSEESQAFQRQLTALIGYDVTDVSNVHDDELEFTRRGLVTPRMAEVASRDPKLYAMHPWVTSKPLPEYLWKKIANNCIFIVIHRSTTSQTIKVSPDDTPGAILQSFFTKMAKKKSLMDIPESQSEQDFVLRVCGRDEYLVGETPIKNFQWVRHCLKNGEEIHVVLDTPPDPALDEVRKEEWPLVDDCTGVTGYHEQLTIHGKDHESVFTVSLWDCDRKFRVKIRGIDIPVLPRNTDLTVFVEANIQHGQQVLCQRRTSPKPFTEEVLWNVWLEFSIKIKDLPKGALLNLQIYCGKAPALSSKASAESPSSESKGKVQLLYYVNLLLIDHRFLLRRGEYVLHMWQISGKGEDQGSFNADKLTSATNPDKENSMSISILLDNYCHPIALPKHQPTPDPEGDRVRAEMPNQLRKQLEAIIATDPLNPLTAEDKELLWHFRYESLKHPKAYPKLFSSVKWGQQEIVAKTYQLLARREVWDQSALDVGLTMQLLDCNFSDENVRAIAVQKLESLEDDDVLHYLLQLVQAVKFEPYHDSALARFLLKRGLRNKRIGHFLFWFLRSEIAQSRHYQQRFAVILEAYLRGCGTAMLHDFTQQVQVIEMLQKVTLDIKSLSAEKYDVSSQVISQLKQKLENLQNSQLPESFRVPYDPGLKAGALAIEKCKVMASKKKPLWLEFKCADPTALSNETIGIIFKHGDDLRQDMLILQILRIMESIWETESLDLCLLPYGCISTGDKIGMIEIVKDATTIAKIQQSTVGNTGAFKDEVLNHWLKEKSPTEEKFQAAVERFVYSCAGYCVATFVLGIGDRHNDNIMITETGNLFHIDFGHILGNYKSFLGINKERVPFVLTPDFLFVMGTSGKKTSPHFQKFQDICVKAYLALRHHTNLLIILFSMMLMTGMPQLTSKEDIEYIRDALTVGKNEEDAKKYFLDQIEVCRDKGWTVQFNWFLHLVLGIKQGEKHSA
Chain of PIK3CB (Human) (P42338 whole entry, looked up): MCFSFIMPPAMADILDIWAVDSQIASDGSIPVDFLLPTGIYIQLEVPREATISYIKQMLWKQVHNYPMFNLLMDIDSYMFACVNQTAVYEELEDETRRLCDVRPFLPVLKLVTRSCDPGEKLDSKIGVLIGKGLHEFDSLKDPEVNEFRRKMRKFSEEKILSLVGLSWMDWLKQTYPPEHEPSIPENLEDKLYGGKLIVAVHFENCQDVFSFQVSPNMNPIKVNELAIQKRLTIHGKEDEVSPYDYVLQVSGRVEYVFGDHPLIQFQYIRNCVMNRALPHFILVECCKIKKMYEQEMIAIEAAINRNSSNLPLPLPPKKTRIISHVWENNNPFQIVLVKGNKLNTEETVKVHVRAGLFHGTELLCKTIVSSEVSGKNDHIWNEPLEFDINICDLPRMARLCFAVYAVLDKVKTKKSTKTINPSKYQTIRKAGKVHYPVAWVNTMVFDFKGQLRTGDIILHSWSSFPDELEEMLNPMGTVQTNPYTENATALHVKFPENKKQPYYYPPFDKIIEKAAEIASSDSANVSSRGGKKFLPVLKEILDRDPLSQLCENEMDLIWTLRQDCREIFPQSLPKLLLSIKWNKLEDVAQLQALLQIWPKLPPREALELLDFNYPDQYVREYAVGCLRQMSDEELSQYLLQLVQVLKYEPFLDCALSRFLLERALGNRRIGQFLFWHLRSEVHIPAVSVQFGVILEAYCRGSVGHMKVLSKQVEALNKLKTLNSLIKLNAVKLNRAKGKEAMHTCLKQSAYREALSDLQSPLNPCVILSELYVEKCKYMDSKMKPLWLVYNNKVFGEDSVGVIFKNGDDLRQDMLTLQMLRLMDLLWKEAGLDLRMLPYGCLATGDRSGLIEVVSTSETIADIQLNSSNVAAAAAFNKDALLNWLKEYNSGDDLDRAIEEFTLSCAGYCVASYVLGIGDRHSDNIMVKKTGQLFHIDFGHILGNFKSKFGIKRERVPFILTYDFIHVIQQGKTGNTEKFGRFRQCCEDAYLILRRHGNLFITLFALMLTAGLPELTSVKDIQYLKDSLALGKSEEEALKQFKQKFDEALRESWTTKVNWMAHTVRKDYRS

SMILES | IC50 (PIK3CG (human)) | IC50 (PIK3CB (Human)) | IC50 (PIK3CD (Human)) | IC50 (PIK3CA (human))
Cc1nc(N)nc(N[C@@H](C)c2cc3cccc(Cl)c3c(=O)n2-c2ccccc2)c1C#N | < 0.1 µM | < 0.1 µM | < 0.1 µM | < 0.1 µM
COc1ncc(-c2cccc3cc([C@H](C)Nc4nc(N)ncc4C(F)(F)F)n(-c4cccc(F)c4)c(=O)c23)cn1 | 0.1 to 1 µM | > 10 µM | < 0.1 µM | > 10 µM
C[C@H](Nc1nc(N)ncc1-c1csc(S(C)(=O)=O)n1)c1cc2cccc(Cl)c2c(=O)n1-c1ccccc1 | < 0.1 µM | < 0.1 µM | < 0.1 µM | < 0.1 µM
COc1cccc2cc([C@H](C)Nc3nc(N)ncc3C#N)n(-c3ccccc3)c(=O)c12 | 0.1 to 1 µM | > 10 µM | – | > 10 µM
COc1cc(-c2cccc3cc([C@H](C)Nc4nc(N)ncc4-c4cc(O)cc(F)c4)n(-c4ccccc4)c(=O)c23)ccn1 | 0.1 to 1 µM | > 10 µM | < 0.1 µM | > 10 µM
C[C@H](Nc1cc(N)ncn1)c1cc2cccc(Cl)c2c(=O)n1-c1ccccc1 | – | > 10 µM | 0.1 to 1 µM | > 10 µM
COc1ncc(-c2cccc3cc([C@H](C)Nc4nc(N)ncc4C(N)=O)n(-c4ccccc4)c(=O)c23)cn1 | < 0.1 µM | > 10 µM | < 0.1 µM | > 10 µM
C[C@H](Nc1nc(N)ncc1C#N)c1cc2cccc(Cl)c2c(=O)n1C | 0.1 to 1 µM | 0.1 to 1 µM | 0.1 to 1 µM | > 10 µM
C[C@H](Nc1nc(N)ncc1NS(C)(=O)=O)c1cc2cccc(Cl)c2c(=O)n1-c1ccccc1 | > 10 µM | > 10 µM | > 10 µM | > 10 µM
C[C@H](Nc1nc(N)ncc1C#N)c1cc2cccc(Cl)c2c(=O)n1-c1ccc(F)cc1 | 0.1 to 1 µM | > 10 µM | 0.1 to 1 µM | > 10 µM
Cc1ncc(-c2cnc(N)nc2N[C@@H](C)c2cc3cccc(Cl)c3c(=O)n2-c2ccccc2)s1 | < 0.1 µM | 0.1 to 1 µM | < 0.1 µM | > 10 µM
C[C@H](Nc1nc(N)ncc1C#N)c1cc2cccc(-c3cnc4ccccc4c3)c2c(=O)n1-c1ccccc1 | < 0.1 µM | 0.1 to 1 µM | < 0.1 µM | < 0.1 µM
COc1cc(-c2cccc3cc([C@H](C)Nc4nc(N)ncc4-c4ccccc4)n(-c4ccccc4)c(=O)c23)ccn1 | < 0.1 µM | > 10 µM | 0.1 to 1 µM | > 10 µM
C[C@H](Nc1nc(N)ncc1C#N)c1cc2cccc(Cl)c2c(=O)n1C1CCCC1 | < 0.1 µM | 0.1 to 1 µM | < 0.1 µM | > 10 µM
COc1cc(-c2cccc3cc([C@H](C)Nc4nc(N)ncc4-c4ccc(F)c(O)c4)n(-c4ccccc4)c(=O)c23)ccn1 | < 0.1 µM | > 10 µM | < 0.1 µM | > 10 µM
COc1cc(N[C@@H](C)c2cc3cccc(Cl)c3c(=O)n2-c2ccccc2)nc(N)n1 | – | > 10 µM | – | > 10 µM
C[C@H](Nc1nc(N)ncc1C(=O)N1CCC1)c1cc2cccc(Cl)c2c(=O)n1-c1ccccc1 | < 0.1 µM | > 10 µM | – | > 10 µM
COc1ncc(-c2cccc3cc([C@H](C)Nc4nc(N)ncc4C#N)n(-c4cccc(F)c4)c(=O)c23)cn1 | < 0.1 µM | > 10 µM | < 0.1 µM | > 10 µM
COc1ncc(-c2cccc3nc([C@H](C)Nc4nc(N)ncc4C#N)n(-c4ccccc4)c(=O)c23)cn1 | < 0.1 µM | > 10 µM | < 0.1 µM | > 10 µM
C[C@H](Nc1nc(N)ncc1C(=O)N1CCC1)c1cc2cccc(-c3cnn(C)c3)c2c(=O)n1-c1ccccc1 | < 0.1 µM | > 10 µM | 0.1 to 1 µM | > 10 µM
CNC(=O)c1cnc(N)nc1N[C@@H](C)c1cc2cccc(-c3ccnc(OC)c3)c2c(=O)n1-c1ccccc1 | < 0.1 µM | 0.1 to 1 µM | < 0.1 µM | 0.1 to 1 µM
COc1cncc(-c2cccc3cc([C@H](C)Nc4nc(N)ncc4C#N)n(-c4ccccc4)c(=O)c23)c1 | < 0.1 µM | 0.1 to 1 µM | < 0.1 µM | 0.1 to 1 µM
C[C@H](Nc1nc(N)ncc1C#N)c1cc2cccc(-c3ccnnc3)c2c(=O)n1C1CC1 | 0.1 to 1 µM | 0.1 to 1 µM | < 0.1 µM | > 10 µM
COc1cc(-c2cccc3cc([C@H](C)Nc4nc(N)ncc4C(=O)NC4CC4)n(-c4ccccc4)c(=O)c23)ccn1 | – | > 10 µM | < 0.1 µM | > 10 µM
CCN(C)C(=O)c1cnc(N)nc1N[C@@H](C)c1cc2cccc(-c3ccnc(OC)c3)c2c(=O)n1-c1ccccc1 | 0.1 to 1 µM | > 10 µM | – | > 10 µM
C[C@H](Nc1nc(N)ncc1C(=O)N1CC(F)(F)C1)c1cc2cccc(Cl)c2c(=O)n1-c1ccccc1 | – | > 10 µM | – | > 10 µM
C[C@H](Nc1nc(N)ncc1C#N)c1cc2cccc(-c3ccn(C)c(=O)c3)c2c(=O)n1-c1ccccc1 | – | > 10 µM | – | > 10 µM
